Tests used:
[1] = target: Human cytomegalovirus DNA polymerase (Human cytomegalovirus (strain AD169) (HHV-5) (Human herpesvirus 5), UniProt P08546); experiment: CMV polymerase assay (AlphaLISA); type: biochemical; settings: HCMV polymerase 0.2 nM, 30 min pre-incubation, 60 minute at 37° C.
Description: (§1) Human cytomegalovirus and varicella zoster virus DNA polymerases were expressed via baculovirus vector in SF21 cells and purified. Heterodimeric nucleic acid substrate used in the herpesvirus polymerase reactions were generated by annealing a 59-mer template to a 17-mer digoxigenin-labeled primer. Polymerase (HCMV final concentration of 0.2 nM; VZV final concentration of 0.4 nM) was combined with an inhibitor compound or DMSO in assay buffer (10 mM HEPES, pH 7.5, 25 mM KCl, 25 mM NaCl, 5 mM MgCl2, 5% glycerol, 0.67 mg/ml bovine serum albumin, and 1 mM tris(2-carboxyethyl)phosphine)), and this mixture was pre-incubated for 30 minutes at room temperature in 384-well microtiter plates. The polymerization reaction was initiated by the addition of template/primer substrate (final concentration: 1.6 nM), and dNTPs (final concentration: 24 nM dCTP, 24 nMdGTP, 16 nM dATP, 16 nM dTTP, and 0.8 nM biotin-dUTP). After a 60 minute incubation period at 37° C., the reactions were terminated using quench buffer (25 mM HEPES pH 7.5, 100 mM NaCl, 0.25% Tween-20, 12 mM EDTA, and 1 mg/ml bovine serum albumin). Incorporation of biotinylated UTP was detected with 2.5-5 μg/mL anti-DIG AlphaLISA acceptor beads and 5-10 μg/mL streptavidin AlphaLISA donor beads (PerkinElmer). Compound effects were normalized to the window defined by the controls (DMSO only and pre-quenched wells), and were fit using a 4-parameter algorithm to report an IC50.

[2] = target: varicella zoster virus DNA polymerase (Varicella-zoster virus (strain Dumas) (HHV-3) (Human herpesvirus 3), UniProt P09252); experiment: VZV polymerase assay (AlphaLISA); type: biochemical; settings: VZV polymerase 0.4 nM, 30 min pre-incubation, 60 minute at 37° C.
Description: as §1

CMV = experiment: Viral qPCR assay, CMV; type: cell-based; settings: Human betaherpesvirus 5, 72 h, infected cells, viral genome copies by qPCR normalized to PPIA, read-out: CMV Cell EC50
In short: (§2)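 EC50 reflects inhibition of viral DNA copies relative to PPIA after roughly 72 hrs of infection in MRC5, Vero or MeWo cells. Copy numbers were derived by TaqMan qPCR from a plasmid standard curve.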

HSV1 = experiment: Viral qPCR assay, HSV1; type: cell-based; settings: Human alphaherpesvirus 1, 72 h, infected cells, viral genome copies by qPCR normalized to PPIA, read-out: HSV1 Cell EC50
In short: as §2

HSV2 = experiment: Viral qPCR assay, HSV2; type: cell-based; settings: Human alphaherpesvirus 2, 72 h, infected cells, viral genome copies by qPCR normalized to PPIA, read-out: HSV2 Cell EC50
In short: as §2

In the case of `O=C1OC[C@@H]2C[C@@H](Oc3cc4c(=O)n(Cc5ccc(Cl)cc5)ccc4nc3-c3cnco3)CCN12` [Example 38], the IC50 [1] is reported as 1.1 nM, the IC50 [2] is reported as 0.33 nM and the EC50 (CMV) is reported as 24 nM. It also gave an EC50 (HSV1) of 48 nM and an EC50 (HSV2) of 28 nM.

For `COc1nc2ccn(Cc3ccc(Cl)cc3)c(=O)c2cc1O[C@H]1CCN2C(=O)OC[C@@H]2C1` [Example 39], the IC50 [1] was 28 nM, the IC50 [2] was 41 nM and the EC50 (CMV) was 520 nM. For the same compound, the EC50 (HSV1) was 1340 nM and the EC50 (HSV2) was 952 nM.

In the case of `Cc1nc2ccc(O[C@H]3CCN4C(=O)OC[C@@H]4C3)cc2c(=O)n1Cc1ccc(Cl)cc1` [Example 40], the IC50 [1] is reported as 11 nM, the IC50 [2] is reported as 17 nM and the EC50 (CMV) is reported as 157 nM. It also gave an EC50 (HSV1) of 386 nM and an EC50 (HSV2) of 304 nM.

Work on `N#Cc1cc2ncn(Cc3ccc(Cl)cc3)c(=O)c2cc1O[C@H]1CCN2C(=O)OC[C@@H]2C1` [Example 41] yielded an IC50 [1] of 2.7 nM, an IC50 [2] of 1.1 nM and an EC50 (CMV) of 77 nM. For the same compound, the EC50 (HSV1) was 131 nM and the EC50 (HSV2) was 75 nM.

Compound `O=C1OC[C@@H]2C[C@@H](Oc3cc(-c4cnco4)c4ncn(Cc5ccc(Cl)cc5)c(=O)c4c3)CCN12` [Example 42] has an IC50 [1] of 21 nM, an IC50 [2] of 13 nM and an EC50 (CMV) of 181 nM. The EC50 (HSV1) was 233 nM and the EC50 (HSV2) was 92 nM.

Work on `CC(C)(O)Cc1nc2ncn(Cc3ccc(Cl)cc3)c(=O)c2cc1O[C@H]1CCN2C(=O)OC[C@@H]2C1` [Example 45] yielded an IC50 [1] of 11 nM, an IC50 [2] of 25 nM and an EC50 (CMV) of 269 nM. It also gave an EC50 (HSV1) of 268 nM and an EC50 (HSV2) of 309 nM.

In the case of `O=C1OC[C@@H]2C[C@@H](Oc3cc(CO)c4ncn(Cc5ccc(Cl)cc5)c(=O)c4c3)CCN12` [Example 46], the IC50 [1] is reported as 24 nM, the IC50 [2] is reported as 20 nM and the EC50 (CMV) is reported as 174 nM. For the same compound, the EC50 (HSV1) was 423 nM and the EC50 (HSV2) was 334 nM.

In the case of `CC(C)(O)Cc1cc(O[C@H]2CCN3C(=O)OC[C@@H]3C2)cc2c(=O)n(Cc3ccc(Cl)cc3)cnc12` [Example 48], the IC50 [1] is reported as 42 nM, the IC50 [2] is reported as 37 nM and the EC50 (CMV) is reported as 273 nM. For the same compound, the EC50 (HSV1) was 701 nM and the EC50 (HSV2) was 645 nM.

For `O=C1OC[C@@H]2C[C@@H](Oc3ccc4nc(C5CC5)n(Cc5ccc(Cl)cc5)c(=O)c4c3)CCN12` [Example 49], the IC50 [1] was 29 nM, the IC50 [2] was 43 nM and the EC50 (CMV) was 369 nM. The EC50 (HSV1) was 1130 nM and the EC50 (HSV2) was 1080 nM.

`Cc1nc2cc(-c3cnco3)c(O[C@H]3CCN4C(=O)OC[C@@H]4C3)cc2c(=O)n1Cc1ccc(Cl)cc1` [Example 51] gave an IC50 [1] of 0.22 nM, an IC50 [2] of 0.44 nM and an EC50 (CMV) of 21 nM. The EC50 (HSV1) was 26 nM and the EC50 (HSV2) was 16 nM.

`Cc1nc2cc(-c3cnn(C)c3)c(O[C@H]3CCN4C(=O)OC[C@@H]4C3)cc2c(=O)n1Cc1ccc(Cl)cc1` [Example 52] gave an IC50 [1] of 0.3 nM, an IC50 [2] of 0.44 nM and an EC50 (CMV) of 22 nM. It also gave an EC50 (HSV1) of 39 nM and an EC50 (HSV2) of 19 nM.

`Cc1nc2cc(-c3cn[nH]c3)c(O[C@H]3CCN4C(=O)OC[C@@H]4C3)cc2c(=O)n1Cc1ccc(Cl)cc1` [Example 53] gave an IC50 [1] of 0.76 nM, an IC50 [2] of 0.56 nM and an EC50 (CMV) of 86 nM. It also gave an EC50 (HSV1) of 89 nM and an EC50 (HSV2) of 35 nM.

Work on `Cc1nc2cc(-c3cccnc3)c(O[C@H]3CCN4C(=O)OC[C@@H]4C3)cc2c(=O)n1Cc1ccc(Cl)cc1` [Example 54] yielded an IC50 [1] of 23 nM, an IC50 [2] of 28 nM and an EC50 (CMV) of 82 nM. For the same compound, the EC50 (HSV1) was 238 nM and the EC50 (HSV2) was 173 nM.

With `Cc1nc2cc(C#N)c(O[C@H]3CCN4C(=O)OC[C@@H]4C3)cc2c(=O)n1Cc1ccc(Cl)cc1` [Example 56] the IC50 [1] was 2.8 nM, the IC50 [2] was 6.5 nM and the EC50 (CMV) was 64 nM. For the same compound, the EC50 (HSV1) was 124 nM and the EC50 (HSV2) was 109 nM.

`COc1nc2ccc(O[C@H]3CCN4C(=O)OC[C@@H]4C3)cc2c(=O)n1Cc1ccc(Cl)cc1` [Example 58] was tested, and the IC50 [1] was 23 nM, the IC50 [2] was 47 nM and the EC50 (CMV) was 173 nM. The EC50 (HSV1) was 996 nM and the EC50 (HSV2) was 1140 nM.

With `Cc1nc2ccc(O[C@H]3CCN4C(=O)OC[C@@H]4C3)cc2c(=O)n1Cc1ccc(C#N)cc1` [Example 59] the IC50 [1] was 31 nM, the IC50 [2] was 29 nM and the EC50 (CMV) was 347 nM. The EC50 (HSV1) was 746 nM and the EC50 (HSV2) was 561 nM.

Source: US12497405B2, “Bicyclic heterocycle compounds methods of use thereof for the treatment of herpes viruses” (Merck Sharp & Dohme LLC, priority 2019, dated 2025)
